Assays:
[1] = tested on: epinephrine-increased blood-pressure (anti-α effect); assay: Antiadrenergic effect: anti-α effect (reduction of epinephrine-increased blood-pressure); assay type: in vivo; settings: dog; for inhibition in vivo at 7.5 mg/kg: dose 7.5 mg/kg i.v.
Protocol: (§1) The purpose of this test was to determine the capacity of the compounds under study to reduce epinephrine-increased blood-pressure (anti-α effect) and epinephrine-accelerated heart rate (anti-β effect) in the dog previously anaesthetized with pentobarbital and atropinized.
(§2) For each dog, the dose of epinephrine was first determined which provoked a reproductible increase by about 100 mm. Hg in the arterial pressure (between 5 and 10 μg/kg). After that, the dose of epinephrine so determined was administered followed by a dose by intravenous route of the compound to be studied. The percentage of reduction of the hypertension provoked by the compound under study in comparison with the hypertension previously obtained (about 100 mm. Hg) was then registered.
(§3) The percentage of reduction of the epinephrine-induced acceleration of heart-rate produced by the compound under study in comparison with the tachycardia previously measured (about 70 beats) was then registered. In both cases, the results were expressed as follows: […]
(§4) + for a <50%-reduction of the increase in pressure or cardiac frequency
(§5) ++ for a ≥50%-reduction of the increase in pressure or cardiac frequency
(§6) +++ for a subtotal reduction of the increase in pressure or cardiac frequency

[2] = tested on: epinephrine-accelerated heart rate (anti-β effect); assay: Antiadrenergic effect: anti-β effect (reduction of epinephrine-accelerated heart rate); assay type: in vivo; settings: dog; for inhibition in vivo at 7.5 mg/kg: dose 7.5 mg/kg i.v.
Protocol: as §1, §2, §3, §4, §5, §6

[3] = Canis lupus familiaris, iv, dose 10 mg/kg i.v.
[4] = Canis lupus familiaris, iv, dose 7.8 mg/kg i.v.
[5] = Canis lupus familiaris, iv, dose 5 mg/kg i.v.
[6] = Canis lupus familiaris, iv, dose 7 mg/kg i.v.

For `CCCc1c(Br)c2ccccn2c1C(=O)c1cc(Br)c(OCCCN(CCC)CCC)c(Br)c1` [Br/Br/Br/n-C3H7/n-C3H7/3, 1-Bromo-2-n-propyl-3-[4-(3-di-n-propylaminopropyl)-oxy-3,5-dibromo-benzoyl]-indolizine], the Anti-α effect ([1]; dose 10 mg/kg i.v.) was “+++” and the Anti-β effect ([2]; dose 10 mg/kg i.v.) was “+++”.

In the case of `CCCCN(CCCC)CCCOc1ccc(C(=O)c2c(-c3ccc(F)cc3)c(Br)c3ccccn23)cc1Br` [Br/Br/H/drawing 23/n-C4H9/3], the Anti-α effect ([1]; dose 10 mg/kg i.v.) is reported as “+++” and the inhibition in vivo at 10 mg/kg [2, 3] is reported as > 50%.

For `CCCN(CCC)CCCOc1c(Cl)cc(C(=O)c2c(-c3ccccc3)c(Br)c3ccccn23)cc1Cl` [Br/Cl/Cl/drawing 39/n-C3H7/3, 1-Bromo-2-phenyl-3-[4-(3-di-n-propylaminopropyl)-oxy-3,5-dichloro-benzoyl]-indolizine], the inhibition in vivo at 10 mg/kg [1, 3] was > 50% and the inhibition in vivo at 10 mg/kg [2, 3] was > 50%.

`CCCCN(CCCC)CCCOc1c(Cl)cc(C(=O)c2c(-c3ccccc3)c(Br)c3ccccn23)cc1Cl` [Br/Cl/Cl/drawing 40/n-C4H9/3, 1-Bromo-2-phenyl-3-[4-(3-di-n-butylaminopropyl)-oxy-3,5-dichloro-benzoyl]-indolizine] was tested, and the inhibition in vivo at 10 mg/kg [1, 3] was > 50% and the inhibition in vivo at 10 mg/kg [2, 3] was > 50%.

In the case of `CCCN(CCC)CCCOc1ccc(C(=O)c2c(CC)c(Br)c3ccccn23)cc1Cl` [Br/Cl/H/C2H5/n-C3H7/3, 1-Bromo-2-ethyl-3-[4-(3-di-n-propylaminopropyl)-oxy-3-chloro-benzoyl]-indolizine], the inhibition in vivo at 7.8 mg/kg [1, 4] is reported as > 50% and the inhibition in vivo at 7.8 mg/kg [2, 4] is reported as > 50%.

`CCCCN(CCCC)CCCOc1ccc(C(=O)c2c(CC)c(Br)c3ccccn23)cc1Cl` [Br/Cl/H/C2H5/n-C4H9/3, 1-Bromo-2-ethyl-3-[4-(3-di-n-butylaminopropyl)-oxy-3-chloro-benzoyl]-indolizine] was tested, and the Anti-α effect ([1]; dose 10 mg/kg i.v.) was “+++” and the Anti-β effect ([2]; dose 10 mg/kg i.v.) was “+++”.

In the case of `CCCCN(CCCC)CCCOc1ccc(C(=O)c2c(-c3ccccc3)c(Br)c3ccccn23)cc1Cl` [Br/Cl/H/drawing 26/n-C4H9/3], the inhibition in vivo at 10 mg/kg [1, 3] is reported as > 50% and the Anti-β effect ([2]; dose 10 mg/kg i.v.) is reported as “+++”.

`CCCN(CCC)CCCOc1ccc(C(=O)c2c(-c3ccc(Br)cc3)c(Br)c3ccccn23)cc1Cl` [Br/Cl/H/drawing 27/n-C3H7/3] was tested, and the inhibition in vivo at 10 mg/kg [1, 3] was > 50% and the inhibition in vivo at 10 mg/kg [2, 3] was > 50%.

With `CCCCN(CCCC)CCCOc1ccc(C(=O)c2c(-c3ccc(Cl)cc3)c(Br)c3ccccn23)cc1Cl` [Br/Cl/H/drawing 28/n-C4H9/3] the inhibition in vivo at 10 mg/kg [1, 3] was > 50% and the inhibition in vivo at 10 mg/kg [2, 3] was > 50%.

In the case of `CCCN(CCC)CCCOc1ccc(C(=O)c2c(-c3ccc(Cl)cc3)c(Br)c3ccccn23)cc1Cl` [Br/Cl/H/drawing 30/n-C3H7/3], the Anti-α effect ([1]; dose 10 mg/kg i.v.) is reported as “+++” and the inhibition in vivo at 10 mg/kg [2, 3] is reported as > 50%.

With `CCCN(CCC)CCCOc1ccc(C(=O)c2c(-c3cccc(Br)c3)c(Br)c3ccccn23)cc1Cl` [Br/Cl/H/drawing 32/n-C3H7/3] the Anti-α effect ([1]; dose 10 mg/kg i.v.) was “+++” and the Anti-β effect ([2]; dose 10 mg/kg i.v.) was “+++”.

`CCCCN(CCCC)CCCOc1ccc(C(=O)c2c(CC)c(Br)c3ccccn23)cc1` [Br/H/H/C2H5/n-C4H9/3, 1-Bromo-2-ethyl-3-[4-(3-di-n-butylaminopropyl)-oxy-benzoyl]-indolizine] was tested, and the Anti-α effect ([1]; dose 6 mg/kg i.v.) was “+++” and the Anti-β effect ([2]; dose 6 mg/kg i.v.) was “+++”.

For `CCCCN(CCCC)CCCOc1ccc(C(=O)c2c(CC)c(Br)c3ccccn23)cc1OC` [Br/OCH3/H/C2H5/n-C4H9/3, 1-Bromo-2-ethyl-3-[4-(3-di-n-butylaminopropyl)-oxy-3-methoxy-benzoyl]-indolizine], the inhibition in vivo at 5 mg/kg [1, 5] was > 50% and the inhibition in vivo at 5 mg/kg [2, 5] was > 50%.

With `CCCN(CCC)CCCOc1ccc(C(=O)c2c(C)c(Br)c3ccccn23)cc1OC` [Br/OCH3/H/CH3/n-C3H7/3, 1-Bromo-2-methyl-3-[4-(3-di-n-propylaminopropyl)-oxy-3-methoxy-benzoyl]-indolizine] the inhibition in vivo at 7.5 mg/kg ([1]; Canis lupus familiaris, iv) was > 50% and the inhibition in vivo at 7.5 mg/kg ([2]; Canis lupus familiaris, iv) was > 50%.

With `CCCCN(CCCC)CCCOc1ccc(C(=O)c2c(C)c(Br)c3ccccn23)cc1OC` [Br/OCH3/H/CH3/n-C4H9/3, 1-Bromo-2-methyl-3-[4-(3-di-n-butylaminopropyl)-oxy-3-methoxy-benzoyl]-indolizine] the inhibition in vivo at 7 mg/kg [1, 6] was > 50% and the inhibition in vivo at 7 mg/kg [2, 6] was > 50%.

For `CCCCN(CCCC)CCCOc1ccc(C(=O)c2c(CC)c(C)c3ccccn23)cc1Br` [CH3/Br/H/C2H5/n-C4H9/3, 1-Methyl-2-ethyl-3-[4-(3-di-n-butylaminopropyl)-oxy-3-bromo-benzoyl]-indolizine], the Anti-α effect ([1]; dose 2 mg/kg i.v.) was “+++” and the inhibition in vivo at 2 mg/kg ([2]; Canis lupus familiaris, iv, dose 2 mg/kg i.v.) was > 50%.

In the case of `CCCCN(CCCC)CCCOc1ccc(C(=O)c2c(C)c(C)c3ccccn23)cc1Br` [CH3/Br/H/CH3/n-C4H9/3, 1,2-Dimethyl-3-[4-(3-di-n-butylaminopropyl)-oxy-3-bromo-benzoyl]-indolizine], the inhibition in vivo at 10 mg/kg [1, 3] is reported as > 50% and the inhibition in vivo at 10 mg/kg [2, 3] is reported as > 50%.

`CCCCN(CCCC)CCCOc1ccc(C(=O)c2c(-c3ccccc3)c(C)c3ccccn23)cc1Br` [CH3/Br/H/drawing 45/n-C4H9/3, 1-Methyl-2-phenyl-3-[4-(3-di-n-butylaminopropyl)-oxy-3-bromo-benzoyl]-indolizine] was tested, and the Anti-α effect ([1]; dose 6.2 mg/kg i.v.) was “+++” and the inhibition in vivo at 6.2 mg/kg ([2]; Canis lupus familiaris, iv, dose 6.2 mg/kg i.v.) was > 50%.

For `CCCN(CCC)CCCOc1ccc(C(=O)c2c(-c3ccccc3)c(C)c3ccccn23)cc1Br` [CH3/Br/H/drawing 46/n-C3H7/3, 1-Methyl-2-phenyl-3-[4-(3-di-n-propylaminopropyl)-oxy-3-bromo-benzoyl]-indolizine], the inhibition in vivo at 5 mg/kg [1, 5] was > 50% and the inhibition in vivo at 5 mg/kg [2, 5] was > 50%.

In the case of `CCCCN(CCCC)CCCOc1ccc(C(=O)c2c(CCC)c(C)c3ccccn23)cc1Br` [CH3/Br/H/n-C3H7/n-C4H9/3, 1-Methyl-2-n-propyl-3-[4-(3-di-n-butylaminopropyl)-oxy-3-bromo-benzoyl]-indolizine], the Anti-α effect ([1]; dose 10 mg/kg i.v.) is reported as “+++” and the Anti-β effect ([2]; dose 10 mg/kg i.v.) is reported as “+++”.

With `CCCCc1c(C)c2ccccn2c1C(=O)c1ccc(OCCCN(CCCC)CCCC)c(Br)c1` [CH3/Br/H/n-C4H9/n-C4H9/3, 1-Methyl-2-n-butyl-3-[4-(3-di-n-butylaminopropyl)-oxy-3-bromo-benzoyl]-indolizine] the inhibition in vivo at 7.5 mg/kg ([1]; Canis lupus familiaris, iv) was > 50% and the inhibition in vivo at 7.5 mg/kg ([2]; Canis lupus familiaris, iv) was > 50%.

In the case of `CCCCN(CCCC)CCCOc1ccc(C(=O)c2c(-c3ccccc3)c(C)c3ccccn23)cc1` [CH3/H/H/drawing 47/n-C4H9/3, 1-Methyl-2-phenyl-3-[4-(3-di-n-butylaminopropyl)-oxy-benzoyl]-indolizine], the Anti-α effect ([1]; dose 6.3 mg/kg i.v.) is reported as “+++” and the Anti-β effect ([2]; dose 6.3 mg/kg i.v.) is reported as “+++”.

For `CCCN(CCC)CCCOc1ccc(C(=O)c2c(-c3ccccc3)c(C)c3ccccn23)cc1` [CH3/H/H/drawing 48/n-C3H7/3, 1-Methyl-2-phenyl-3-[4-(3-di-n-propylaminopropyl)-oxy-benzoyl]-indolizine], the Anti-α effect ([1]; dose 5 mg/kg i.v.) was “+++” and the Anti-β effect ([2]; dose 5 mg/kg i.v.) was “+++”.

`CCCN(CCC)CCCOc1c(Br)cc(C(=O)c2c(-c3ccccc3)c(Cl)c3ccccn23)cc1Br` [Cl/Br/Br/drawing 38/n-C3H7/3, 1-Chloro-2-phenyl-3-[4-(3-di-n-propylaminopropyl)-oxy-3,5-dibromo-benzoyl]-indolizine] was tested, and the inhibition in vivo at 10 mg/kg [1, 3] was < 50% and the inhibition in vivo at 10 mg/kg [2, 3] was < 50%.

`CCCCN(CCCC)CCCOc1ccc(C(=O)c2c(CC)c(Cl)c3ccccn23)cc1Br` [Cl/Br/H/C2H5/n-C4H9/3, 1-Chloro-2-ethyl-3-[4-(3-di-n-butylaminopropyl)-oxy-3-bromo-benzoyl]-indolizine] was tested, and the Anti-α effect ([1]; dose 10 mg/kg i.v.) was “+++” and the Anti-β effect ([2]; dose 10 mg/kg i.v.) was “+++”.

From US4520026A, “Indolizine derivatives and use as cardiovascular agents” (S. A. Labaz N.V., priority 1982, dated 1985)
